Converted amounts (≈) assume the structure as drawn.

For experiment [1], the system named is HEL. Nature of the experiment: Cytotoxic concentration reducing HEL cell growth by 50%. The class given is functional. The settings on record: Homo sapiens.
Experiment [2] has as its system HEL. Nature of the experiment: Minimum cytotoxic concentration against HEL cell morphology. The class given is functional. The settings on record: Homo sapiens.
Experiment [3] deals with Human betaherpesvirus 5. Nature of the experiment: Antiviral activity was tested against human cytomegalovirus AD-169 which reduces virus plaque formation by 50%. The experiment is classed as functional, organism-based.
For experiment [4], the system named is Human betaherpesvirus 5. Nature of the experiment: Antiviral activity was tested against human cytomegalovirus Davis which reduces virus plaque formation by 50%. The class given is functional, organism-based.
The test system of experiment [5] is Human alphaherpesvirus 3. The experiment in a line: Antiviral activity was tested against TK- Varicella-Zoster virus 07/1 which reduces virus plaque formation by 50%. The experiment is classed as functional, organism-based.
Experiment [6] deals with Human alphaherpesvirus 3. Nature of the experiment: Antiviral activity was tested against TK+ Varicella-Zoster virus OKA which reduces virus plaque formation by 50%. The experiment is classed as functional, organism-based.
Experiment [7] relates to Human alphaherpesvirus 3. Nature of the experiment: Antiviral activity was tested against TK+ Varicella-Zoster virus YS which reduces virus plaque formation by 50%. The class given is functional, organism-based.
Experiment [8] relates to Human alphaherpesvirus 3. The experiment in a line: Antiviral activity was tested against TK- Varicella-Zoster virus YS/R which reduces virus plaque formation by 50%. The class given is functional, organism-based.

Usually CC50 stands for the concentration that lowers cell viability or growth by half. Usually IC50 stands for the concentration at which inhibition is half-maximal. As to `Nc1nc2c(ncn2COC(CO)CO)c(=O)[nH]1` [GANCICLOVIR], the CC50 in the experiment on HEL [1] was above 50 µg/mL. Moreover, the MCC with HEL [2] was above 50 µg/mL. For the same compound, the IC50 in the experiment on Human betaherpesvirus 5 [3] worked out at 0.3 µg/mL (≈ 1.18 µM); in the experiment on Human betaherpesvirus 5 [4], 0.4 µg/mL (≈ 1.57 µM).
As for `O=c1[nH]c(=O)n([C@H]2C[C@H](O)[C@@H](CO)O2)cc1/C=C/Br` [BRIVUDINE], the CC50 with HEL [1] is above 200 µg/mL. Moreover, the MCC with HEL [2] was above 50 µg/mL. For the same compound, the IC50 in the experiment with Human alphaherpesvirus 3 [5] is 6.8 µg/mL (≈ 20.4 µM); in the experiment with Human alphaherpesvirus 3 [6] it was 0.002 µg/mL (≈ 0.006 µM); in the experiment on Human alphaherpesvirus 3 [7], 0.003 µg/mL (≈ 0.00901 µM); in the experiment on Human alphaherpesvirus 3 [8] it was 6.4 µg/mL (≈ 19.2 µM).
As for `Nc1ccn(C[C@@H](CO)OCP(=O)(O)O)c(=O)n1.O.O` [CIDOFOVIR], in the experiment with HEL [1], the CC50 is above 50 µg/mL. The compound further returned an MCC in the experiment with HEL [2] above 50 µg/mL. The IC50 in the experiment on Human betaherpesvirus 5 [3] was found to be 0.1 µg/mL; in the experiment on Human betaherpesvirus 5 [4], 0.3 µg/mL.
In the experiment with HEL [1], `Nc1nc2c(ncn2COCCO)c(=O)[nH]1` [ACYCLOVIR] displayed a CC50 above 200 µg/mL. In addition, the MCC in the experiment on HEL [2] is above 50 µg/mL. For the same compound, the IC50 was determined as 6.5 µg/mL (≈ 28.9 µM) in the experiment on Human alphaherpesvirus 3 [5], 0.35 µg/mL (≈ 1.55 µM) in the experiment on Human alphaherpesvirus 3 [6], 0.38 µg/mL (≈ 1.69 µM) with Human alphaherpesvirus 3 [7] and 3.1 µg/mL (≈ 13.8 µM) in the experiment on Human alphaherpesvirus 3 [8].

(Values after ChEMBL document CHEMBL1135344, “Synthesis and antiviral/antiproliferative activity of some N-sulphonylbenzimidazoles” (Bioorg Med Chem Lett, 2002).)
